The record followed here is article PMC6013238, “Development of novel NEMO-binding domain mimetics for inhibiting IKK/NF-κB activation” (PLoS Biology, 2018).

Where “and” joins values, the source holds several entries; their conditions need not be identical. Equal values may be shown once. Read-outs that look alike come from different tables or passages of the source.

The nature of data set [1]: Mouse PK, i.v. and oral gavage. Type of data set: in vivo. The note with it: for bioavailability: PO 10mg/Kg versus IV, Avg. Here is the method:
Supplementary file pbio.2004663.s002.tif: S1 Fig IC50 and the complete pharmacokinetic profiles of NBD mimetics. (A) Dose-dependent curve of NBD mimetics ranging from 0 to 150 μM was determined by NF-κB luciferase assays in HEK293 cells. (B) Complete pharmacokinetic profiles of SR12460 and SR12343 administered i.v. or by oral gavage in mice. Underlying data can be found in S1 Data. AUC%Extrap, percentage of the area under the curve extrapolated to infinity from Tlast to infinity; AUCINF_obs, area under the curve from 0 to infinity; AUClast, area under the curve from the time of dosing to the last measurable concentration; Cmax, maximum observed concentration; Clobs, total serum clearance; HEK, human embryonic kidney 293 cells; IC50, half maximal inhibitory concentration; NBD, NEMO-binding domain; NEMO, NF-κB essential modulator; NF-κB, nuclear factor κB; T1/2, half-life; Tmax, time of maximum concentration. (TIF) Click here for additional data file.

A further data set concerns IL-6 production. Kind of data set: Mouse IL-6 ELISA of supernatant of LPS-stimulated Raw 264.7 cells. It is filed as cell-based. The note with it: LPS 1 μg/ml 24 h; for mIL-6 in supernatant (ELISA): Fig 4D; for Effect on LPS-induced IL-6 production (ELISA): 25 and 50 μM. On the procedure: Fig 4 Modified lead NBD mimetics inhibit TNF-α- and LPS-induced NF-κB activation by disrupting the association between NEMO and IKKβ. (A) Structures of top NBD mimetics. (B) Measurement of NF-κB activation in response to TNF-α by using Dual-luciferase reporter assays. HEK293 cells cotransfected with NF-κB luciferase reporter and SV40-Renilla plasmids were pretreated with DMSO or listed small molecules at 0, 25, 50, 100, and 150 μM for 30 min, followed by the induction of TNF-α for 3 h. Data shown are representative of 2–3 independent experiments. […] Raw 264.7 cells were pretreated with indicated drugs for 30 min and then stimulated with 1 μg/ml of LPS for 2 h. Cells were then harvested for RNA extraction and qRT-PCR analysis. Drug concentrations used are as follows: IKKi VII (2 μM), 8K-NBD peptide (200 μM), SR12343 (50 μM), SR12460 (50 μM), SR12454 (50 μM), and SR11481 (50 μM). Data are representative of 2 independent experiments. […] Raw 264.7 cells pretreated with DMSO or drugs at indicated concentrations were exposed to 1 μg/ml of LPS for 24 h, and supernatant was collected for ELISA analysis of mouse IL-6. *P < 0.05; **P < 0.01. Underlying data can be found in S1 Data. HEK293, human embryonic kidney 293 cells; IKK, IκB kinase; IL-6, interleukin 6; LPS, lipopolysaccharide; NBD, NEMO-binding domain; n.d., nondetectable; NEMO, NF-κB essential modulator; NF-κB, nuclear factor κB; qRT-PCR, […] real-time polymerase chain reaction; TNF-α; tumor necrosis factor α. TEXT PRINTED IN THE PICTURE: (D) ikki VII: mIL-6 (ng/ml): n.d. | (D) SR12460: mIL-6 (ng/ml): n.d. (50μM) | (D) SR12454: mIL-6 (ng/ml): n.d. (50μM) DOUBTS OF THE COPYIST ABOUT THIS PICTURE: Panel D: the only printed results are the three "n.d." labels. They stand in place of bars and are assigned to ikki VII, SR12460 50μM and SR12454 50μM by their position on the axis. All other results are shown only as bars, with no printed numbers.
To confirm the qRT-PCR results, the levels of IL-6 production in Raw 264.7 cells activated by LPS were analyzed by ELISA.
Raw 264.7 cells were grown in 96-well plates and pretreated with vehicle, IKKi VII (2 μM), and small molecules (at indicated concentration) for 1 h, followed by the stimulation with 1 μg/ml of LPS. Supernatant was collected 24 h later for ELISA analysis. IL-6 concentration was measured using a mouse IL-6 ELISA kit (BD) according to the manufacturer’s instructions.
In general terms: In an ELISA, binding on a coated surface is turned into a signal by an enzyme label.

The nature of data set [2]: Stability time course in FBS media with or without acetonitrile. It is filed as in vitro ADME. On the procedure:
To confirm that the NBD mimetics reduce IKK kinase activity, phosphorylation of IκBα by IKK in response to 10 ng/ml of TNF-α was measured by western blot at 0, 5, and 10 min after stimulation. […] To determine whether the mimetics also reduce NF-κB DNA binding activity, electrophoretic mobility shift assay (EMSA) was conducted both in vitro and in vivo. […] The addition of acetonitrile increased the stability of both ZINC compounds, especially ZINC 5 (Fig 3D).
Fig 3 Two identified small molecules reduce NF-κB DNA binding activity in vivo and in vitro. (A) Levels of p-IκBα with or without treatment in response to TNF-α were determined by western blot analysis. HEK293 cells were pretreated with DMSO, ZINC12909780 (100 μM), and ZINC5 (100 μM) for 30 min followed by the stimulation of 10 ng/ml of TNF-α for 0, 5, and 10 min. Cell lysates were prepared for immunoblot against p-IκBα. GAPDH was used as a loading control. (B) EMSA analysis detecting NF-κB DNA binding activity was performed in C2C12 myoblasts. Cells were pretreated with 200 μM of DMSO, ZINC12909780, and ZINC5 in serum-free media for 1 h. TNF-α was then added to a final concentration of 10 ng/ml and incubated for 15 min. Nuclear extract was obtained for EMSA analysis. (C) EMSA analysis assessing NF-κB DNA binding activity in vivo was performed with quadriceps from mdx mice. Single-dose ZINC12909780 and ZINC5 at 10 mg/kg was given by i.p. Quadriceps was harvested at 1 h and 2 h post injection for EMSA analysis. (D) The time-course pharmacokinetics of ZINC5 and ZINC12909780 in FBS media or FBS media containing acetonitrile. Underlying data can be found in S1 Data. EMSA, electrophoretic mobility shift assay; HEK293, human embryonic kidney 293 cells; i.p., intraperitoneal; NF-κB, nuclear factor κB; t1/2, half-life; TNF-α; tumor necrosis factor α.

The mark [3] stands for this setting: PO 10mg/Kg, single mice and Avg., 10 mg/kg.
Where [4] appears, read: PO 10mg/Kg, single mice and Avg., 10 mg/kg, mean.
Where [5] appears, read: mouse, serum, po, 10 mg/kg, PO 10mg/Kg, single mice and Avg.
Where [6] appears, read: IV 2mg/Kg, single mice and Avg., 2 mg/kg.
The mark [7] stands for this setting: IV 2mg/Kg, single mice and Avg., 2 mg/kg, mean.

By Tmax is commonly meant the time at which the peak concentration occurs. A word on the AUC(0-t): it is exposure summed from dosing to a finite time, without extrapolation to infinity. The low end stands for low exposure, the high end for high exposure. As usually defined, the Cmax is the peak of the concentration-time curve. One may read the half-life as how long it takes for the measured level to halve. A higher half-life goes with slow decline. What is called bioavailability is the share of a dose that reaches the circulation, judged against a reference dose that is usually intravenous. For `O=C(CNc1ccc(Cl)cn1)NCCc1cccc(Br)c1` [SR12343], the “AUC %Extrap” value in data set [1] (IV 1mg/Kg, single mice and Avg., 1 mg/kg) is 0.68% and 0.92% and 0.30%. In addition, in data set [1] (IV 1mg/Kg, single mice and Avg., 1 mg/kg, mean), the “AUC %Extrap” value turned out to be 0.63%. Further, in data set [1] (setting [3]), the AUC %Extrap was 0.51% and 0.40% and 0.32%; the AUCINF_obs is 11013 ng·min/mL and 20121 ng·min/mL; the Cl_obs is 862.00 mL/min/kg and 908.01 mL/min/kg and 497.00 mL/min/kg; the T1/2 stood at 0.50 h. In data set [1] (setting [4]), this compound came in with an AUC %Extrap of 0.41%, an AUCINF_obs of 14245 ng·min/mL, a Cl_obs of 755.67 mL/min/kg and a T1/2 of 0.53 h. For the same compound, in data set [1] (S1B Fig), the “Oral activity (comparison)” value is on record as “not as orally active as SR123460”. The Tmax in data set [1] (mouse, serum, iv, 1 mg/kg, IV 1mg/Kg, single mice and Avg., read-out: Tmax) came to 0.08 h. In data set [1] (setting [5]), the AUC(0-t) was 192 ng·h/mL and 0.52 µM·h; the Cmax was 523 ng/mL and 1.43 µM; the half-life is 0.58 h. For the same compound, in data set [1] (mouse, serum, po, 10 mg/kg, PO 10mg/Kg, single mice and Avg., read-out: AUCINF_obs (converted)), the AUC(0-inf) is 193 ng·h/mL. In data set [1] (mouse, serum), this compound registered a bioavailability of 0.86%. Moreover, in the data set with IL-6 production (25 μM), the “mIL-6 in supernatant (ELISA)” value is 2.6915 ng/mL and 2.4446 ng/mL and 1.843 ng/mL. The “Effect on LPS-induced IL-6 production (ELISA)” value in the data set with IL-6 production is “inhibited IL-6 production, but was not as effective as SR12460 and SR12454”.
As for `O=C(CNCCc1cc(F)cc(F)c1)Nc1ccc(Cl)cn1` [SR12460], in data set [1] (setting [6]), the “AUC %Extrap” value was 17.95% and 11.52%; the MRTINF_obs is 3.50 h; the T1/2 came to 2.57 h; the Vss_obs was 0.17 L/kg and 0.30 L/kg. For the same compound, in data set [1] (setting [7]), the “AUC %Extrap” value amounted to 14.74%, the MRTINF_obs was determined as 3.99 h, the T1/2 turned out to be 2.99 h and the Vss_obs is given as 0.23 L/kg. Besides, in data set [1] (setting [3]), the T1/2 was 1.99 h and 1.74 h; the Tmax is 1.00 h. Besides, in data set [1] (setting [4]), the T1/2 turned out to be 2.35 h and the Tmax stood at 0.67 h. This compound also had a half-life in data set [1] (mouse, serum, iv, 2 mg/kg, IV 2mg/Kg, single mice and Avg.) of 3.42 h. In data set [1] (mouse, serum, iv, 2 mg/kg, IV 2mg/Kg, single mice and Avg., read-out: MRTINF_obs), the MRT inf is 4.49 h. In data set [1] (setting [5]), the AUC(0-t) was 47600 ng·h/mL and 146 µM·h; the Cmax was 11200 ng/mL and 34.5 µM; the half-life is 3.31 h. In addition, the Tmax in data set [1] (mouse, serum, po, 10 mg/kg, PO 10mg/Kg, single mice and Avg., read-out: Tmax) stood at 0.5 h. The compound further gave a bioavailability in data set [1] (mouse, serum) of 20.1%. For the same compound, in the data set with IL-6 production (25 μM), the “mIL-6 in supernatant (ELISA)” value was 1.4838 ng/mL and 1.2369 ng/mL and 1.4569 ng/mL. Moreover, the “mIL-6 in supernatant (ELISA)” value with IL-6 production (50 μM) turned out to be 0 ng/mL. For the same compound, in the data set on IL-6 production, the “Effect on LPS-induced IL-6 production (ELISA)” value is listed as “inhibit IL-6 secretion significantly in a dose-dependent manner”.
In the case of `O=C(COC(=O)Cc1ccccc1F)Nc1ccc(Cl)cn1` [ZINC5], in data set [2], the “Stability in cell culture media containing FBS” value is “extremely unstable”. The t1/2 in data set [2] (FBS-media) came out at 1.5 h; in data set [2] (FBS-media+acetonitrile) it was 10.8 h. For the same compound, the “% remaining” value in data set [2] (fbs-media+acetonitrile, 15 min) is reported as 77.2%; in data set [2] (fbs-media+acetonitrile, 30 min), 85.8%; in data set [2] (fbs-media+acetonitrile, 60 min) it was 86.3%; in data set [2] (fbs-media+acetonitrile, 240 min), 69.4%; in data set [2] (fbs-media, 15 min), 90.8%; in data set [2] (fbs-media, 30 min), 79.8%. Further, the “% remaining” value in data set [2] (fbs-media, 60 min) came to 61.8%; in data set [2] (fbs-media, 240 min), 16.4%.
As for `Nc1ncccc1C(=O)OCC(=O)Nc1ccc(Cl)cc1F` [ZINC12909780], in data set [2], the “Stability in cell culture media containing FBS” value is on record as “relatively more stable”. Further, the amount remaining at 0.25 h in data set [2] (bovine, FBS media containing acetonitrile, fbs-media+acetonitrile, 15 min) was 94.8%; in data set [2] (bovine, cell culture media containing FBS, fbs-media, 15 min) it was 101%. In addition, the fraction remaining at 0.5 h in data set [2] (bovine, FBS media containing acetonitrile, fbs-media+acetonitrile, 30 min) was found to be 103%; in data set [2] (bovine, cell culture media containing FBS, fbs-media, 30 min), 105%. Besides, the fraction remaining at 1 h in data set [2] (bovine, FBS media containing acetonitrile, fbs-media+acetonitrile, 60 min) worked out at 106%; in data set [2] (bovine, cell culture media containing FBS, fbs-media, 60 min), 92%. The fraction remaining at 4 h in data set [2] (bovine, FBS media containing acetonitrile, fbs-media+acetonitrile, 240 min) was 104%; in data set [2] (bovine, cell culture media containing FBS, fbs-media, 240 min) it was 85%. Further, the half-life in data set [2] (bovine, cell culture media containing FBS, FBS-media) is 15 h.
